The values that follow come from publication PMC5608556, “Photo-affinity labelling and biochemical analyses identify the target of trypanocidal simplified natural product analogues” (PLoS Neglected Tropical Diseases, 2017).

Assay [1] has as its system ATP production (oxidative phosphorylation) in digitonin-permeabilised PF T. brucei. Nature of the assay: ATP production assay in digitonin-permeabilised cells. Particulars: 30 min; for Inhibition of ATP production from Gly-3P / Effect on ATP production from Gly-3P: glycerol-3-phosphate as substrate; for Inhibition of ATP production from Gly-3P / Effect on ATP production from succinate: compound 1, AA, OA 200 μM, DNP 1 mM; for Effect on ATP production from succinate: succinate 2.5 mM as substrate; for Effect on ATP production from succinate / Effect on ATP production from Gly-3P: malonate 5 mM, rotenone, SHAM 100 μM. In kind it is cell-based, Trypanosoma brucei. The source says:
We next sought to identify the point at which ATP production was blocked using digitonin-permeabilised cells. Digitonin permeabilises the plasma membrane of trypanosomatids, but crucially, leaves the glycosomes and mitochondria intact and fully functional, allowing them to be probed with compartment-specific ATP-yielding substrates. Digitonin-permeabilised PF T. brucei were probed with succinate, which is readily transported across the PF T. brucei mitochondrial membrane by the dicarboxylic acid carrier and can yield only oxidative phosphorylation-derived ATP through the FoF1-ATP synthase (complex V).
Fig 5 Inhibition of ATP production in digitonin-permeabilsed cells. (A-C) Digitonin-permeabilised PF T. brucei were probed with substrates in the presence of inhibitors and resulting ATP production quantified by bioluminescence assay. See experimental section for details. Inhibitors were used at saturating concentrations to ensure that relevant enzyme activities were ablated. Key: NS, no substrate; NI, no inhibitor; SHAM, salicylhydroxamic acid (TAO inhibitor at 100 μM); Rotenone (complex I inhibitor at 100 μM); Malonate (complex II inhibitor at 5 mM); AA, antimycin A (complex III inhibitor at 200 μM); OA, oligomycin A (complex V inhibitor at 200 μM); DNP, 2,4-dinitrophenol (protonophore at 1 mM); Comp.1, compound 1 at 200 μM. Background relative light units (RLU) were subtracted from measurements and % ATP production normalised to the no inhibitor control. Data were averaged from three independent experiments, each performed in quadruplicate. Error bars show standard deviations. T-tests were performed against no inhibitor controls (black asterisks) and compound 1 (grey open circles) and significance values presented: p < 0.00005 (*** / °°°), p < 0.0005 (** / °°), p < 0.005 (* / °). (A) Succinate was used as a substrate to generate ATP solely through oxidative phosphorylation (OxPhos). Oxidative phosphorylation inhibitors malonate, AA, OA and DNP virtually eliminated all ATP production. […] (B) α-ketoglutarate yields 40% ATP through substrate-level phosphorylation (SubPhos) and 60% through oxidative phosphorylation. Malonate, AA, OA and DNP inhibit oxidative phosphorylation, but not substrate-level phosphorylation. […] (C) Gly-3P acts as an alternative entry site to the electron transport chain yielding ATP through oxidative phosphorylation and the glycosome (GlyPhos). Malonate has no effect, as it acts at a different entry point. AA, OA and DNP inhibit oxidative phosphorylation, but not glycosomal phosphorylation.
ATP production assays were carried out in duplicate, and three independent assays were conducted. Cells were digitonin-permeabilised as previously described. Briefly, cells were washed in PBS and permeabilised for 5 min at a density of 1x10^8 cells/mL in SoTE buffer (20 mM Tris.HCl (pH 7.5), 2 mM EDTA pH 7.5, 600 mM sorbitol) supplemented with 0.015% (w/v) digitonin. Permeabilised cells were pelleted at 5000 g for 3 min at 4°C and suspended to 8.4x10^7 cells/mL in ATP assay buffer (20 mM Tris.HCl (pH 7.4), 15 mM KH2PO4, 0.6 M sorbitol, 10 mM MgSO4, 2.5 mg/mL fatty acid-free BSA.
ATP production assays were carried out in 75 μl volumes in 96-well plates with a final PF T. brucei cell density of 6.7 x 10^7 cells/mL as previously reported. […] B-THP-Ts, antimycin A (AA) and oligomycin A (OA) were used at 200 μM, Dinitrophenol (DNP) at 1 mM, malonate at 5 mM, rotenone at 100 μM and salicylhydroxamic acid (SHAM) at 100 μM. 59.25 μL digitonin-permeabilised cells (prepared above) were added to 0.75 μl inhibitor dissolved in DMSO (or 0.75 μL DMSO without inhibitor for no inhibitor control) and incubated for 10 min to allow inhibitors to take effect. Substrate was added to 2.5 mM and incubated for 10 min. Reactions were started with the addition of ADP to 60 μM and incubated at RT for 30 min. […]

The test system of assay [2] is mitochondrial membrane potential (Δψm) in live PF T. brucei. In words: MitoTracker monitoring of mitochondrial membrane potential. The following applies: 2 h, AA and OA 2 μM, DNP 1 mM. Type of assay: cell-based, Trypanosoma brucei. The source says: To determine which mitochondrial complex of oxidative phosphorylation was targeted by B-THP-T compounds, their effects on the mitochondrial membrane potential (Δψm) were monitored in live PF T. brucei (Fig 6A). MitoTracker Red CMXRos, like tetramethylrhodamine and safranine, accumulates in active mitochondria and the degree of accumulation is dependent on the Δψm, however, accumulation of MitoTracker Green FM is independent of the Δψm and the ratio of red/green uptake can therefore be used to determine the Δψm normalised to the number and size of mitochondria present. […] Similarly, compounds 1 and 3 elevated the mitochondrial membrane potential (by 2-3-fold), confirming that they, like OA, reduce oxidative phosphorylation by the inhibition of the FoF1-ATP synthase.
Fig 6 Effects of compounds on mitochondrial membrane potential. PF T. brucei were incubated with inhibitors and MitoTracker Red CMXRos, which is an indicator of the mitochondrial membrane potential (Δψm). (A) MitoTracker-loaded cells were imaged to qualitatively detect differences in the Δψm. […] (B) Fluorescence of MitoTracker-loaded cells were quantified using a microplate reader and normalised to MitoTracker green fluorescence.
2 x 10^6 PF T. brucei cells were incubated in 1 mL GF-SDM-79 growth media supplemented with/without inhibitors for 2 h. B-THP-Ts were used at 40 μM, AA and OA at 2 μM, DNP at 1 mM and SHAM at 100 μM. MitoTracker Red CMXRos and MitoTracker Green FM were added to 100 nM and 1 μM respectively and incubated for a further 10 min. Cells were washed in growth medium and the MitoTracker reagents chased into the mitochondrion for 10 min in fresh growth medium supplemented with inhibitors. Cells were washed again in growth medium to remove unincorporated MitoTracker reagents, pelleted, suspended in 100 μL 4% PFA in PBS, and fixed at RT in the dark for 10 min. Fixed cells were pelleted and suspended in 100 μl PBS. Cells were transferred to poly-lysine-coated slides and mounted with DAPI-containing SlowFade mounting medium (Invitrogen). Fluorescence images were collected with a DeltaVision microscope (as detailed above) to show MitoTracker localisation and comparative intensity.
1 mL of cells at 1 x 10^7 cells/mL were labelled as above. However, instead of fixing cells they were resuspended in 200 μL growth medium and transferred to 96-well plates. Fluorescences were recorded (excitation at 540/35 nm, emission at 590/10 nm for MitoTracker Red CMXRos, and excitation at 485/20 nm, emission at 528/20 nm for MitoTracker Green FM) using a BioTek FLX800 spectrofluorimeter and Gen5 Reader Control 2.0 software, in much the same way as others have recorded previously. Background fluorescence values were subtracted from each and MitoTracker Red fluorescences normalised against their MitoTracker Green FM counterparts. Membrane potentials were then calculated relative to the uninhibited controls.

A further assay has as its system T. brucei PF. In words: Toxicity (EC50, cell viability) in procyclic form T. brucei. Type of assay: cell-based. The following applies: Trypanosoma brucei, live cells, 72 h incubation, footnote a. The source says: (§1) Fig 1 Labelling and detection of B-THP-T target(s). (A) Structures of chamuvarinin and simplified analogues thereof as probes used in this study and their respective toxicity in selected cell lines. Bi-functional compound 3 contains a diazirine (blue) to cross-link the compound to its target and an alkyne handle (red) to which an azide-containing reporter probe can be added. Mono-functional compound 2 contains the diazirine to cross-link to its target but lacks the alkyne handle and cannot be appended with an azide reporter probe. Lead B-THP-T, compound 1, lacks both diazirine and alkyne. The additional functional groups on compounds 2 and 3 are minor alterations, which have little effect on inhibitor potency. (B) Overview of the in vivo pulse-chase photo-affinity labelling procedure. B-THP-T were incubated with live PF T. brucei cells and trafficked to their targets. Following UV-irradiation, only compounds containing a diazirine (i.e. compounds 2 and 3) could cross-link with target proteins. The subsequent “click reaction” appended the conjugated B-THP-T with a reporter probe as long as an alkyne handle was present (i.e. on compound 3). Refer to the experimental section for details. (C) Detection of Cy5.5-tagged proteins following photo-affinity labelling. Proteins were separated by SDS-PAGE and conjugated Cy5.5 was detected at 700 nm. Lanes 1–3 correspond to usage of compounds 1–3 respectively. Several proteins in lane 3 were conjugated with Cy5.5 via labelling with bi-functional compound 3. […]
The potency of lead B-THP-T, compound 1, was determined against oxidative phosphorylation in dose-response assays in digitonin-permeabilised PF T. brucei.
Supplementary file pntd.0005886.s001.tiff: S1 Fig Dose-response of B-THP-T compounds in PF T. brucei. EC50 values were determined for compounds 1–3 in PF T. brucei. […]

Another assay relates to HeLa. Nature of the assay: Toxicity (EC50) in HeLa cells. The following applies: Homo sapiens, footnote b, read-out: EC50 values Mammal HeLa. In kind it is cell-based. The source says: Fig 1 Labelling and detection of B-THP-T target(s). (A) Structures of chamuvarinin and simplified analogues thereof as probes used in this study and their respective toxicity in selected cell lines. Bi-functional compound 3 contains a diazirine (blue) to cross-link the compound to its target and an alkyne handle (red) to which an azide-containing reporter probe can be added. Mono-functional compound 2 contains the diazirine to cross-link to its target but lacks the alkyne handle and cannot be appended with an azide reporter probe. Lead B-THP-T, compound 1, lacks both diazirine and alkyne. The additional functional groups on compounds 2 and 3 are minor alterations, which have little effect on inhibitor potency. (B) Overview of the in vivo pulse-chase photo-affinity labelling procedure. B-THP-T were incubated with live PF T. brucei cells and trafficked to their targets. Following UV-irradiation, only compounds containing a diazirine (i.e. compounds 2 and 3) could cross-link with target proteins. The subsequent “click reaction” appended the conjugated B-THP-T with a reporter probe as long as an alkyne handle was present (i.e. on compound 3). Refer to the experimental section for details. (C) Detection of Cy5.5-tagged proteins following photo-affinity labelling. Proteins were separated by SDS-PAGE and conjugated Cy5.5 was detected at 700 nm. […]

The next assay concerns T. brucei BSF. Nature of the assay: Toxicity (EC50) in bloodstream form T. brucei. Type of assay: cell-based, Trypanosoma brucei. Particulars: Trypanosoma brucei; bloodstream form; footnote b.
Text: as §1

As to `O=[N+]([O-])c1ccc(O)c([N+](=O)[O-])c1` [2,4-dinitrophenol], in assay [1], the “Inhibition of ATP production from Gly-3P” value amounted to 67 ± 13% and the “Effect on ATP production from succinate” value is recorded as “almost abolished ATP production”. Besides, the “Effect on mitochondrial membrane potential (Δψm)” value in assay [2] is reported as “decrease the mitochondrial membrane potential”.
Turning to `OCCCC[C@H]1CC2(C[C@@H](Cn3cc([C@@H]4CCC[C@H](CCCCOCc5ccccc5)O4)nn3)O1)N=N2` [Compound 2, 4-((5S,7S)-7-((4-((2S,6S)-6-(4-(benzyloxy)butyl)tetrahydro-2H-pyran-2-yl)-1H-1,2,3-triazol-1-yl)methyl)-6-oxa-1,2-diazaspiro[2.5]oct-1-en-5-yl)butan-1-ol], the figures for the EC50 with T. brucei PF, in the assay on HeLa and with T. brucei BSF were 8.9 ± 0.2 µM, 20.9 ± 3 µM and 11.8 ± 0.8 µM, respectively.
As for `C=C(C)[C@H]1Cc2c(ccc3c2O[C@@H]2COc4cc(OC)c(OC)cc4[C@@H]2C3=O)O1` [rotenone], in assay [1], the “Effect on ATP production from Gly-3P” value is “no effect” and the “Effect on ATP production from succinate” value is “no significant effect”.
Turning to `O=C(NO)c1ccccc1O` [salicylhydroxamic acid], in assay [1], the “Effect on ATP production from Gly-3P” value is “no effect” and the “Effect on ATP production from succinate” value is “no significant effect”.
With oligomycin A, in assay [1], the “Inhibition of ATP production from Gly-3P” value is given as 65 ± 21% and the “Effect on ATP production from succinate” value is “almost abolished ATP production”. Further, in assay [2], the “Effect on mitochondrial membrane potential (Δψm)” value is on record as “elevates the Δψm”.

As a reminder, the EC50 is the concentration giving half of the maximal effect.
